pIC50: −log10 of the molar value.
Test system: 361931-004-R-J1-PDC multicell spheroid viability
Experiment: Anticancer human tumor 361931-004-R-J1-PDC patient-derived colon adenocarcinoma cell line growth inhibition [PI3K]
Conditions: for pIC50: curve of first compound; for viability, T/C: stronger effect = lower value; active = viability on the fitted dose curve at most 10% of control; inactive = the rest
In short: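 Stroma-containing spheroids: tumor line, pooled-donor HUVEC, hMSC. Treatments: targeted agents with PI3K inhibitors. Dosing: clinically relevant, half-log spacing, 10 microM ceiling without known Cmax. Read-out: cell viability.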

[1] = second compound 0.0316 µM, first compound 0.0316 µM
[2] = second compound 0.0316 µM, first compound 0.1 µM
[3] = second compound 0.0316 µM, first compound 0.316 µM
[4] = second compound 0.0316 µM, first compound 1 µM
[5] = second compound 0.0316 µM, first compound 3.16 µM
[6] = second compound 0.0316 µM, first compound 10 µM
[7] = second compound 0.1 µM, first compound 0.0316 µM
[8] = second compound 0.1 µM, first compound 0.1 µM
[9] = second compound 0.1 µM, first compound 0.316 µM
[10] = second compound 0.1 µM, first compound 1 µM
[11] = second compound 0.1 µM, first compound 3.16 µM
[12] = second compound 0.1 µM, first compound 10 µM
[13] = second compound 0.316 µM, first compound 0.0316 µM
[14] = second compound 0.316 µM, first compound 0.1 µM
[15] = second compound 0.316 µM, first compound 0.316 µM
[16] = second compound 0.316 µM, first compound 1 µM
[17] = second compound 0.316 µM, first compound 3.16 µM
[18] = second compound 0.316 µM, first compound 10 µM
[19] = second compound 1 µM, first compound 0.0316 µM
[20] = second compound 1 µM, first compound 0.1 µM
[21] = second compound 1 µM, first compound 0.316 µM
[22] = second compound 1 µM, first compound 1 µM
[23] = second compound 1 µM, first compound 3.16 µM
[24] = second compound 1 µM, first compound 10 µM
[25] = second compound 0.00316 µM, first compound 0.0316 µM
[26] = second compound 0.00316 µM, first compound 0.1 µM
[27] = second compound 0.00316 µM, first compound 0.316 µM
[28] = second compound 0.00316 µM, first compound 1 µM
[29] = second compound 0.00316 µM, first compound 3.16 µM
[30] = second compound 0.00316 µM, first compound 10 µM
[31] = second compound 0.01 µM, first compound 0.0316 µM
[32] = second compound 0.01 µM, first compound 0.1 µM
[33] = second compound 0.01 µM, first compound 0.316 µM
[34] = second compound 0.01 µM, first compound 1 µM
[35] = second compound 0.01 µM, first compound 3.16 µM
[36] = second compound 0.01 µM, first compound 10 µM
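Also: spheroids exposed to agents for seven days before readout.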

Cn1ncc(Cl)c1-c1cc(C(=O)NC(CN)Cc2cccc(F)c2)sc1Cl (stereo unspecified) + Cc1nc(NC(=O)N2CCCC2C(N)=O)sc1-c1ccnc(C(C)(C)C(F)(F)F)c1
5.88: pIC50 (second compound 0.0316 µM)
6.20: pIC50 (second compound 3.16 µM)
6.04: pIC50 (second compound 0.1 µM)
active: viability, T/C (second compound 10 µM, first compound 10 µM) 7.91%
6.10: pIC50 (second compound 0.316 µM)
6.39: pIC50 (second compound 10 µM)
6.15: pIC50 (second compound 1 µM)
inactive: viability, T/C [1] 98.5% | viability, T/C [2] 95% | viability, T/C [3] 83.4% | viability, T/C [4] 53.4% | viability, T/C [5] 34.3% | viability, T/C [6] 19.7% | viability, T/C [7] 96.3% | viability, T/C [8] 95.3% | viability, T/C [9] 71.8% | viability, T/C [10] 48.8% | viability, T/C [11] 29.8% | viability, T/C [12] 20.5% | viability, T/C [13] 100% | viability, T/C [14] 87.5% | viability, T/C [15] 77.2% | viability, T/C [16] 40% | viability, T/C [17] 28% | viability, T/C [18] 14.5% | viability, T/C [19] 89.8% | viability, T/C [20] 93.7% | viability, T/C [21] 72.3% | viability, T/C [22] 39.1% | viability, T/C [23] 28.8% | viability, T/C [24] 16% | viability, T/C (second compound 3.16 µM, first compound 0.0316 µM) 77.4% | viability, T/C (second compound 3.16 µM, first compound 0.1 µM) 87.1% | viability, T/C (second compound 3.16 µM, first compound 0.316 µM) 67.8% | viability, T/C (second compound 3.16 µM, first compound 1 µM) 35.1% | viability, T/C (second compound 3.16 µM, first compound 3.16 µM) 29.2% | viability, T/C (second compound 3.16 µM, first compound 10 µM) 11.6% | viability, T/C (second compound 10 µM, first compound 0.0316 µM) 77.2% | viability, T/C (second compound 10 µM, first compound 0.1 µM) 69.1% | viability, T/C (second compound 10 µM, first compound 0.316 µM) 54.9% | viability, T/C (second compound 10 µM, first compound 1 µM) 34.2% | viability, T/C (second compound 10 µM, first compound 3.16 µM) 20.6%

CC(Cn1ccc(-c2ccc(C#N)c(Cl)c2)n1)NC(=O)c1cc(C(C)O)[nH]n1 (stereo unspecified) + CC(Nc1ccc2c(c1)OCCn1cc(N3C(=O)OCC3C(F)F)nc1-2)C(N)=O
< 5.00: pIC50 (second compound 0.00316 µM) | pIC50 (second compound 0.01 µM) | pIC50 (second compound 0.0316 µM) | pIC50 (second compound 0.1 µM) | pIC50 (second compound 0.316 µM) | pIC50 (second compound 1 µM)
inactive: viability, T/C [25] 103% | viability, T/C [26] 106% | viability, T/C [27] 109% | viability, T/C [28] 110% | viability, T/C [29] 92.2% | viability, T/C [30] 102% | viability, T/C [31] 98.3% | viability, T/C [32] 113% | viability, T/C [33] 102% | viability, T/C [34] 93.7% | viability, T/C [35] 110% | viability, T/C [36] 98.6% | viability, T/C [1] 102% | viability, T/C [2] 103% | viability, T/C [3] 105% | viability, T/C [4] 111% | viability, T/C [5] 104% | viability, T/C [6] 90.3% | viability, T/C [7] 96% | viability, T/C [8] 99.2% | viability, T/C [9] 93.5% | viability, T/C [10] 97.5% | viability, T/C [11] 79.3% | viability, T/C [12] 72% | viability, T/C [13] 97.8% | viability, T/C [14] 92.1% | viability, T/C [15] 98.8% | viability, T/C [16] 93.9% | viability, T/C [17] 86.1% | viability, T/C [18] 86.8% | viability, T/C [19] 82.2% | viability, T/C [20] 75.9% | viability, T/C [21] 80.2% | viability, T/C [22] 85.8% | viability, T/C [23] 70.6% | viability, T/C [24] 57.5%

Cn1nccc1Nc1nccc(-c2ccn(C(CO)c3ccc(Cl)c(F)c3)c(=O)c2)n1 (stereo unspecified) + CC(Nc1ccc2c(c1)OCCn1cc(N3C(=O)OCC3C(F)F)nc1-2)C(N)=O
5.96: pIC50 (second compound 1 µM)
5.06: pIC50 (second compound 0.00316 µM)
5.64: pIC50 (second compound 0.316 µM)
inactive: viability, T/C [25] 103% | viability, T/C [26] 96.7% | viability, T/C [27] 92.7% | viability, T/C [28] 88.8% | viability, T/C [29] 76.6% | viability, T/C [30] 45.6% | viability, T/C [31] 120% | viability, T/C [32] 105% | viability, T/C [33] 93.9% | viability, T/C [34] 84.1% | viability, T/C [35] 76.5% | viability, T/C [36] 41.4% | viability, T/C [1] 106% | viability, T/C [2] 93% | viability, T/C [3] 85.8% | viability, T/C [4] 82.5% | viability, T/C [5] 70.6% | viability, T/C [6] 36% | viability, T/C [7] 97.6% | viability, T/C [8] 97.8% | viability, T/C [9] 89.3% | viability, T/C [10] 71.9% | viability, T/C [11] 50.5% | viability, T/C [12] 25.5% | viability, T/C [13] 95.3% | viability, T/C [14] 86.5% | viability, T/C [15] 77.8% | viability, T/C [16] 72.9% | viability, T/C [17] 40.7% | viability, T/C [18] 13.2% | viability, T/C [19] 69.8% | viability, T/C [20] 83.3% | viability, T/C [21] 70% | viability, T/C [22] 52.1% | viability, T/C [23] 22.8% | viability, T/C [24] 9.78%
5.11: pIC50 (second compound 0.01 µM)
5.22: pIC50 (second compound 0.0316 µM)
5.51: pIC50 (second compound 0.1 µM)
